In patent US20200109394A1, “COMPOSITIONS AND METHODS FOR ISOLATING CIRCULATING CELLS” (Prescient Pharma LLC, priority 2018, published 2020):

Columns and labels:
[1] = tested on: HT29 cells; experiment: Depletion of Fe2DG-loaded HT29 cells by external magnet from mixture with whole blood (FACS); assay type: cell-based; conditions: Fe2DG 1 mg per 1 ml in human whole blood, RT 2 hours, 30 min inside round magnet vs outside
Experimental: In this Example, the effect of external magnet on suspension HT29 cells (human adenocarcinoma) in whole blood after adding of Fe2DG was studied. For routine maintenance, HT29 cells (ATCC HTB-38) were grown in McCoy's 5A complete growth medium (Cat. No. 30-2007; ATCC, Manassas, Va.) supplemented by 10% FBS, and 1× Penicillin/Streptomycin in an incubator at 37° C. and 5% CO2. Cells were passaged every 4 days. The cells were detached from flasks using trypsin and re-suspended in 5 mL of fresh McCoy's 5A medium. Suspension of HT29 cells (ATCC HTB-38) was count by Countess automated cell counter (Invitrogen). Results: total 1.5×10^6/ml, live cells 1.4×10^6/ml, dead cells 1.3×10^5/ml, Viability 91% Cells were stained by BCECF AM (Life technologies Ref # B1150) intracellular fluorescent dye, according manufacturer instructions. 1 mg of BCECF AM (Invitrogen) was dissolved in 1 ml of DMSO and 10 aliquots were prepared. 1 aliquot was dissolved in 10 ml of Hank's Balanced Salt Solution to make working concentration (0.016 mM). Working solution of BCECF AM was added to HT29 cells suspension (5 ml of BCECF AM 5 ml of HT29 cells suspension in medium) and incubated in room temperature for 30 minutes in the dark. 500 ul of HT29 suspension was added to 4 ml of fresh human volunteer whole blood. Fe2DG in final concentration 1 mg per 1 ml was added. The blood then was incubated in RT for 2 hours. […]

[2] = tested on: HT29 cells; experiment: Depletion of HT29 cells loaded with Fe2DG by external magnet in McCoy's 5A medium (microscopy); assay type: cell-based, human; conditions: Fe2DG 1 mg per 1 ml in McCoy's 5A medium with 10% FBS, RT 1 hour, 30 min inside round magnet vs outside, Hematoxylin stain
Experimental: In this fourth Example, the effect of external magnet on suspension HT29 cells (human adenocarcinoma) in complete McCoy's 5A medium after adding of Fe2DG was studied. Suspension of HT29 cells (ATCC HTB-38) in McCoy's 5A medium with 10% of FBS was count by Countess automated cell counter (Invitrogen). Results: live cells 3.6×10^6/ml, dead cells 1.6×10^5/ml, Viability 96% Fe2DG was added to the cell suspension in final concentration 1 mg per 1 ml. Cells then were incubated in RT for 1 hour. Then the suspension was divided on two portions. Both portions were placed inside of plastic tube (10 cm long, 3 mm in diameter). One tube was placed inside of the round magnet, another tube was outside of the magnet. After incubation for 30 min; contains of both tubes were gently pushed out, and placed on the glass slide, and stained by Hematoxylin. Slides were examined under light microscope Olympus BX51 and pictures were taken using Olympus DP73 digital camera.

[3] = tested on: A375-eGFP-puro cells; experiment: Enrichment of A375-eGFP-puro cells incubated with Fe2DG by external magnet from mixture with whole human blood (FACS); assay type: cell-based; conditions: Fe2DG 1 mg per 1 ml in human whole blood, RT 2 hours, 30 min in magnet; fraction #2 (tube out of magnet) vs fraction #1, FACS
Experimental: In this second Example, the effect of external magnet on suspension A375-eGFP-puro cells (human melanoma) in whole blood after adding of Fe2DG was studied.
A375-eGFP-puro cells (Imanis Life Science) has enhanced Green Fluorescent Protein as a reporter. And can be detected by fluorescent microscope of FACS because of green fluorescence.
For routine maintenance, A375-eGFP-puro cells were grown in DMEM complete growth medium (Cat. No. 30-2002; ATCC, Manassas, Va.) supplemented by 10% FBS, Penicillin/Streptomycin and 1 ug/ml Puromycin in an incubator at 37° C. and 5% CO2. Cells were passaged every 4 days. The cells were detached from flasks using trypsin and re-suspended in 5 mL of fresh DMEM medium.
500 ul of A375-eGFP-puro cells suspension was added to 4 ml of fresh human volunteer whole blood. Fe2DG in final concentration 1 mg per 1 ml was added. The blood then was incubated in RT for 2 hours. Then the blood was placed inside of plastic tube (10 cm long, 3 mm outside diameter). The tube was placed inside of the round magnet. After incubation for 30 min; 0.1 ml of the blood was gently pushed through the tube and through the magnet. […] After centrifugation for 5 min 1000 rpm and removing of supernatant, the pellet was resuspended in 0.5 ml of PBS and introduced for analysis by BD fluorescence-activated cell sorter (FACS) Aria III.

[4] = tested on: CRL-1790 cells (human fibroblasts); experiment: Prussian blue iron staining of CRL-1790 cells after incubation in medium with Fe2DG; assay type: cell-based; conditions: Fe2DG 1 mg/ml in DMEM no glucose with 10% FBS, two hours
Experimental: In this third Example, the differential ability of normal vs cancer cells (higher for malignant cells) to accumulate Iron (Fe) from Fe2DG added to medium was studied. For routine maintenance, CCD 841 CoN human colon fibroblast cells (CRL-1790; ATCC, Manassas, Va.) were grown in EMEM complete growth medium (Cat. No. 30-2003; ATCC, Manassas, Va.) supplemented by 10% FBS, and 1× Penicillin/Streptomycin in an incubator at 37° C. and 5% CO2. Cells were passaged every 4 days. For Fe2DG treatments, CCD 841 CoN cells were grown in 25 cm^2 Nunclon Delta Surface flasks (Cat. No. 136196; Thermo Fisher Scientific, Waltham, Mass.) with EMEM complete medium and kept in an incubator at 37° C. and 5% CO2 until close to 75% confluence was reached. Then medium for both cell types was replaced by DMEM no glucose (ThermoFisher Cat. No. 11966025) supplemented by 10% FBS and Fe2DG 1 mg/ml for two hours. Then medium was removed and both flasks were stained by Prussian blue staining kit “Advanced testing Iron stain” (ThermoFisher Cat. No. 87006). Cells in the flasks were fixed by 10% Formalin, then rinsed by deionized water. Then the cells were stained by freshly prepared Working Iron Solution 30 minutes at room temperature. Then the cells were rinsed by deionized water and counterstain by Nuclear Red Satin Solution for 30 seconds. […]

[5] = tested on: HT29 cells; experiment: Prussian blue iron staining of HT29 cells after incubation in medium with Fe2DG; assay type: cell-based, human; conditions: Fe2DG 1 mg/ml in DMEM no glucose with 10% FBS, two hours
Experimental: In this third Example, the differential ability of normal vs cancer cells (higher for malignant cells) to accumulate Iron (Fe) from Fe2DG added to medium was studied. For routine maintenance, HT29 cells (ATCC HTB-38) were grown in McCoy's 5 A complete growth medium (Cat. No. 30-2007; ATCC, Manassas, Va.) supplemented by 10% FBS, and 1× Penicillin/Streptomycin in an incubator at 37° C. and 5% CO2. Cells were passaged every 4 days. For Fe2DG treatments, HT29 cells (ATCC HTB-38) cells were grown in 25 cm^2 Nunclon Delta Surface flasks (Cat. No. 136196; Thermo Fisher Scientific, Waltham, Mass.) with McCoy's 5A complete medium and kept in an incubator at 37° C. and 5% CO2 until close to 75% confluence was reached. Then medium for both cell types was replaced by DMEM no glucose (ThermoFisher Cat. No. 11966025) supplemented by 10% FBS and Fe2DG 1 mg/ml for two hours. Then medium was removed and both flasks were stained by Prussian blue staining kit “Advanced testing Iron stain” (ThermoFisher Cat. No. 87006). Cells in the flasks were fixed by 10% Formalin, then rinsed by deionized water. Then the cells were stained by freshly prepared Working Iron Solution 30 minutes at room temperature. Then the cells were rinsed by deionized water and counterstain by Nuclear Red Satin Solution for 30 seconds. […]

[6] = tested on: WBC; experiment: Effect on WBC of magnetic trapping in the HT29/whole blood mixture with Fe2DG (FACS); assay type: cell-based; conditions: Fe2DG 1 mg per 1 ml in human whole blood, RT 2 hours, 30 min inside round magnet
Experimental: 500 ul of HT29 suspension was added to 4 ml of fresh human volunteer whole blood. Fe2DG in final concentration 1 mg per 1 ml was added. The blood then was incubated in RT for 2 hours. Then the blood was divided on two portions. Both portions were placed inside of plastic tube (10 cm long, 3 mm outside diameter). One tube was placed inside of the round magnet, another tube was outside of the magnet. After incubation for 30 min; contents of both tubes were gently pushed out. RBC were lysed by adding 4 volumes of distillate water for 30 sec. Then PBS was added to restore osmolarity. After centrifugation for 5 min 1000 rpm and removing of supernatant, the pellet was resuspended in 0.5 ml of PBS and introduced for analysis by BD FACS Aria III

With Fe (III)-2 deoxy D glucose [Fe2DG] the “depletion of BCECF AM stained HT29 cells (gate 4) in the sample pushed out of the tube inside the magnet” value [1] was “significant depletion”, the “depletion of HT29 cells in the sample pushed out of the tube inside the magnet” value [2] was “significant depletion” and the “enrichment of A375-eGFP-puro cells in the second fraction (2nd)” value [3] was 18.5 times. The “accumulation of iron (Prussian blue stain) in normal human fibroblasts (CRL-1790)” value [4] was “practically no accumulation of Iron”, the “accumulation of iron (Prussian blue stain) in cancer cells (HT29)” value [5] was “significant accumulation of iron” and the “specificity of magnetic trapping: effect on WBC” value [6] was “without affect WBC”.
